System: Hydractinia echinata
Assay: Hydractinia echinata test system (HeTS): reduction of Cs+-induced metamorphosis of larvae
Type: in vivo
Settings: for EC50: Hydractinia echinata, read-out: M: experimental Mlog(1/MRC50) (converted); for EC50 / M: experimental Mlog(1/MRC50): MRC50 in mol/L = concentration for 50% decrease of metamorphosis vs control, larvae exposed 3 h with Cs+, read after 24 h
Method: The average (C) concentrations of these values were calculated too. The MRC50 value calculations (Chicu et al.) result from the graphical representation of the metamorphosis variation, M (%), (Y axis) function of the xenobiotic’s concentration (mol/L) (X axis), where the metamorphosis decreases with the rise of the xenobiotic’s concentration. Thus, the MRC50 value represents the xenobiotic’s concentration (mol/L) necessary for a 50% decrease of metamorphosis, with respect to control.
For each concentration of substance experiments were performed in triplicate and were repeated at least twice.
Colonies of H. echinata (Biologische Anstalt, Helgoland, Germany) were used to obtain eggs and larvae. The culture medium was artificial seawater (980 mosmol, pH 8.2, 18 °C). In laboratory an artificial metamorphosis can be synchronically started by the introduction of Cs^+ ions or by using seawater without Mg^2+ ions; it then lasts only 24 h. Under the action of external stimulus of Cs^+ ions or Cs^+ ions together with the tested compounds, one part of larvae further lives as such and another one is metamorphosized to the polyp form. The evaluation of the influence of the tested substance is very clear this way, the proposed method being based on this aspect.
H. echinata larvae were exposed to seawater containing Cs^+ and simultaneously one of the test substances for 3 h. The percentage of animals that underwent metamorphosis (development into polyps) was determined after 24 h. […] We chose a concentration of inducers which caused about […] to three quarters of the larvae to metamorphose in order to have conditions which are highly sensitive against an inhibitory influence. […] This concentration was termed MRC50 (for Metamorphosis Reduction Concentration) and is similar to the effective EC50 concentration that gives half maximal effective response.

SMILES | M: experimental Mlog(1/MRC50) | also measured
O=S(=O)(O)c1cc(S(=O)(=O)O)c2c(/N=N/c3ccccc3)c(O)ccc2c1 [Compound 39, Acid Orange 10 (Orange G)] | – | EC50: 457 µM
O=S(=O)([O-])c1ccc2c(N=Nc3ccccc3[As](=O)(O)O)c(O)c(S(=O)(=O)[O-])cc2c1.[Na+].[Na+] [Compound 40, Thorin] | 3.46 | –
O=S(=O)([O-])c1cc(O)c2c(O)c(N=Nc3ccccc3)c(S(=O)(=O)[O-])cc2c1.[Na+].[Na+] [Compound 41, Acid Red 29 (Chromotrope 2R)] | 3.65 | –
CC(=O)Nc1cc(S(=O)(=O)[O-])cc2cc(S(=O)(=O)[O-])c(N=Nc3ccccc3)c(O)c12.[Na+].[Na+] [Compound 42, Acid Red 1 (Azophloxin)] | 3.66 | –
CC(=O)Nc1cc(S(=O)(=O)[O-])cc2cc(S(=O)(=O)[O-])c(N=Nc3ccccc3C)c(O)c12.[Na+].[Na+] [Compound 43, Acid Red 35] | 3.63 | –
O=C([O-])C1=NN(c2ccc(S(=O)(=O)[O-])cc2)C(=O)C1N=Nc1ccc(S(=O)(=O)[O-])cc1.[Na+].[Na+].[Na+] (centres unmarked) [Compound 55, Acid Yellow 23 (Tartrazine, Food Yellow 4)] | – | toxicity (even at a concentration of 0.11 mol/L): not toxic at all; M: experimental toxicity (class word) (same column as M): NOTE
O=S(=O)([O-])c1ccc(N=Nc2c(O)ccc3ccccc23)c2ccccc12.[Na+] [Compound 56, Acid Red 88 (Fast Red AV)] | 3.31 | –
O=S(=O)([O-])c1ccc2c(N=Nc3ccc(S(=O)(=O)[O-])c4ccccc34)c(O)c(S(=O)(=O)[O-])cc2c1.[Na+].[Na+].[Na+] [Compound 57, Acid Red 27 (Amaranth, Food Red 9)] | 2.33 | –
O=[N+]([O-])c1ccc2c(N=Nc3ccc4ccccc4c3O)c(O)cc(S(=O)(=O)[O-])c2c1.[Na+] [Compound 58, Eriochrom Black T] | 4.13 | –
Cl.Cl.Nc1ccc(N=Nc2cccc(N=Nc3ccc(N)cc3N)c2)c(N)c1 [Compound 60, Bismark Brown Y (Vesuvin)] | 3.87 | –
Cc1ccccc1/N=N/c1ccc(/N=N/c2c(O)ccc3ccccc23)c(C)c1 [Compound 63, Sudan IV (Scarlet Red)] | 3.05 | –
Cc1cccc(N=Nc2ccc(N=Nc3c(O)ccc4ccccc34)cc2C)c1 [Compound 64, Solvent Red 25 (Sudan Red B)] | 3.42 | –
Oc1ccc2ccccc2c1N=Nc1ccc(N=Nc2ccccc2)cc1 [Compound 65, Solvent Red 23 (Sudan III, Sudan V)] | 3.64 | –
O=S(=O)([O-])c1ccc(N=Nc2ccc(N=Nc3c(O)ccc4ccccc34)c(S(=O)(=O)[O-])c2)cc1.[Na+].[Na+] [Compound 68, Acid Red 66 (Biebrischer Scharlach)] | 3.95 | –
O=S(=O)([O-])c1ccc(N=Nc2ccc(N=Nc3c(O)c(S(=O)(=O)[O-])cc4cc(S(=O)(=O)[O-])ccc34)c(S(=O)(=O)[O-])c2)cc1.[Na+].[Na+].[Na+].[Na+] [Compound 69, Ponceau S] | 3.97 | –
Nc1c(N=Nc2ccc([N+](=O)[O-])cc2)c(S(=O)(=O)[O-])cc2cc(S(=O)(=O)[O-])c(N=Nc3ccccc3)c(O)c12.[Na+].[Na+] [Compound 74, Acid Black 1 (Amido Black 10B)] | 4.33 | –
Nc1c(N=Nc2ccc([N+](=O)[O-])cc2)c(S(=O)(=O)[O-])cc2cc(S(=O)(=O)[O-])c(N=Nc3ccccc3)c(O)c12.[Na+].[Na+] [Compound 75, Acid Black 1 (Salt)] | 4.41 | –
CC1(C)Nc2cccc3c(N=Nc4ccc(N=Nc5ccccc5)c5ccccc45)ccc(c23)N1 [Compound 80, Sudan Black B (Solvent Black 3)] | 4.20 | –
Nc1c(/N=N/c2ccc(-c3ccc(/N=N/c4cc(S(=O)(=O)O)c5ccccc5c4N)cc3)cc2)cc(S(=O)(=O)O)c2ccccc12 [Compound 82, Congo Red] | – | EC50: 32.4 µM

Reference: PMC6270994, “The Hydractinia echinata Test-System. III: Structure-Toxicity Relationship Study of Some Azo-, Azo-Anilide, and Diazonium Salt Derivatives” (Molecules, 2014)
